Values quoted from earlier work, collected in patent publication US20200345666A1, “HERBAL MEDICINAL TABLET FORMULATION FOR TREATING OBESITY WHICH CAN BE […] ON SASANG CONS[…]” (NUBEBE CO., LTD., priority 2017, published 2020).

Conditions: taken for 20 weeks or more; Journal of Korean Medicine 2017

CN[C@@H](C)[C@H](O)c1ccccc1 [ephedrine]
weight and body fat loss compared to control group: showed weight and body fat loss
